Test results reported in patent US11319324B2, “Pyrazolo-pyrrolo-pyrimidine-dione derivatives as P2X3 inhibitors” (Bayer Aktiengesellschaft, priority 2017, dated 2022).
Where a name gives a salt, the structure may show the parent alone.

Target: T1, human P2X3 receptor (Homo sapiens, UniProt P56373)
T1 sequence (P56373 1-397): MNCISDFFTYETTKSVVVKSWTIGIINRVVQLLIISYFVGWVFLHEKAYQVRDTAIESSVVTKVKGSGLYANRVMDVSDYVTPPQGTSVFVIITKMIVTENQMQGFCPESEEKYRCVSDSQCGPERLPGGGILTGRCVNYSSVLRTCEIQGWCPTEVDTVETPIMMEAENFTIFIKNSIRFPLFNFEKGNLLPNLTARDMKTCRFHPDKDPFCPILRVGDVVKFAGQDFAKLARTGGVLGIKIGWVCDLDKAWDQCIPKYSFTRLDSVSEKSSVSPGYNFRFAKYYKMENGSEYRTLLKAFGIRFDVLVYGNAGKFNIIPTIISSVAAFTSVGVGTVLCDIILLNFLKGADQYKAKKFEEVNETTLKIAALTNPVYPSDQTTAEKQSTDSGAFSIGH
Assay: Intracellular calcium measurement to assess antagonist activity at human P2X3 receptors (hP2X3 CHO), photina luminescence
Assay type: cell-based
Set-up: expressed in transfected cells; host or cells: Chinese hamster ovary (CHO) cells
Conditions: column 2), CHO cells, agonist α,β-methylene-ATP at EC50
Description: 2) Intracellular Calcium Measurement to Assess Antagonist Activity at Human P2X3 Receptors (hP2X3 CHO)
The determination of antagonistic activity at the P2X3 receptor of the compounds of the invention was performed by use of a recombinant cell line. This cell line derives originally from the Chinese hamster ovary (CHO) cell line (Tjio J. H.; Puck T. T., 1958, J. Exp. Med. 108: 259-271). The cell line is stably transfected with the human P2X3 receptor and a calcium-sensitive photoprotein, mitochondrial photina, which, after reconstitution with the cofactor coelenterazine, emits light in dependence of calcium binding [Bovolenta S, Foti M, Lohmer S, Corazza S., J Biomol Screen. 2007 August; 12(5):694-704]. The strength of the photina luminescence signal corresponds to the level of receptor activation upon agonist binding. An inhibitor would decrease the signal depending on its potency and concentration. Bioluminescence was detected using a suitable luminometer [Milligan G, Marshall F, Rees S, Trends in Pharmacological Sciences 17,235-237 (1996)].
On the day before the assay, the cells were plated out in culture medium (DMEM/F12 (PAN, P04-41451), 10% FCS) in 384-well microtiter plates and kept in a cell incubator (96% humidity, 5% v/v CO2, […]). On the day of the assay medium was replaced by 2 mM Ca-tyrode buffer containing 5 μg/ml coelenterazine. Plates were incubated for 3 hours at 37° C. (96% humidity, 5% v/v CO2). […] The resulting light signal was measured immediately in the luminometer.

| SMILES | IC50 [nM] |
| --- | --- |
| CC(C)N1Cc2c(n(CC(=O)Nc3ccc(F)cn3)c3cc(C4CN(C)C4)nn3c2=O)C1=O [Example 262] | 127 |
| CCc1cc2n(CC(=O)Nc3ccc(F)cn3)c3c(c(=O)n2n1)CN(CC1CN(C(C)=O)C1)C3=O [Example 268] | 580 |
| O=C(Cn1c2c(c(=O)n3nc(C(F)(F)F)cc13)CN(CCN1CCOCC1)C2=O)Nc1ccc(F)cn1 [Example 103] | 143 |
| CC(C)N1Cc2c(n(CC(=O)Nc3ccc(F)cn3)c3cc(C(=O)Nc4ncccn4)nn3c2=O)C1=O [Example 210] | 28 |
| O=C(Cn1c2c(c(=O)n3nc(-c4ccncc4)cc13)CN(Cc1ccccn1)C2=O)Nc1ccc(F)cn1 [Example 130] | 14 |
| O=C(Cn1c2c(c(=O)n3nc(Br)cc13)CN(CCN1CCOCC1)C2=O)Nc1ccc(F)cn1 [Example 111] | 225 |
| CCc1cc2n(CC(=O)Nc3ccc(F)cn3)c3c(c(=O)n2n1)CN(C)C3=O [Example 127] | 43 |
| CC(C)N1Cc2c(n(CC(=O)Nc3ccc(F)cn3)c3cc(C(=O)Nc4ccc(F)cc4)nn3c2=O)C1=O [Example 208] | 28 |
| CCc1cc2n(CC(=O)Nc3ccc(F)cn3)c3c(c(=O)n2n1)CN(C1CCNCC1)C3=O [Example 237] | 1950 |
| CC(C)N1Cc2c(n(CC(=O)Nc3ccc(F)cn3)c3cc(C4=CCS(=O)(=O)CC4)nn3c2=O)C1=O [Example 145, 2-[2-(1,1-dioxo-1,2,3,6-tetrahydro-1lambda^6-thiopyran-4-yl)-5,8-dioxo-6-(propan-2-yl)-5,6,7,8-tetrahydro-4H-pyrazolo[1,5-a]pyrrolo[3,4-d]pyrimidin-4-yl]-N-(5-fluoropyridin-2-yl)acetamide] | 33 |
| CCc1cc2n(CC(=O)Nc3ccc(F)cn3)c3c(c(=O)n2n1)CN(CC(=O)N(C)CC1CC1)C3=O [Example 293] | 240 |
| CCc1cc2n(CC(=O)Nc3ccc(F)cn3)c3c(c(=O)n2n1)CN(CC1CN(C(=O)OC(C)(C)C)C1)C3=O [Example 115] | 205 |
| CCc1cc2n(CC(=O)Nc3ccc(F)cn3)c3c(c(=O)n2n1)CN(C1CN(C(=O)OC(C)(C)C)C1)C3=O [Example 116] | 585 |
| CC(C)N1Cc2c(n(CC(=O)Nc3ccc(F)cn3)c3cc(C(=O)Nc4ccccc4Cl)nn3c2=O)C1=O [Example 203] | 25 |
| COc1ccccc1NC(=O)c1cc2n(CC(=O)Nc3ccc(F)cn3)c3c(c(=O)n2n1)CN(C(C)C)C3=O [Example 202] | 135 |
| CCc1cc2n(CC(=O)Nc3ccc(F)cn3)c3c(c(=O)n2n1)CN(C(C)CO)C3=O (racemic) [Example 137, 2-{2-ethyl-6-[(±)-1-hydroxypropan-2-yl]-5,8-dioxo-5,6,7,8-tetrahydro-4H-pyrazolo[1,5-a]pyrrolo[3,4-d]pyrimidin-4-yl}-N-(5-fluoropyridin-2-yl)acetamide] | 155 |
| CC(C)N1Cc2c(n(CC(=O)Nc3ccc(F)cn3)c3cc(C(=O)Nc4ncco4)nn3c2=O)C1=O [Example 209] | 123 |
| O=C(Cn1c2c(c(=O)n3nc(-c4ccncc4)cc13)CN(Cc1ccc(F)cc1)C2=O)Nc1ccc(F)cn1 [Example 129] | 53 |

| SMILES | IC50 [nM] |
| --- | --- |
| CCc1cc2n(CC(=O)Nc3ccc(F)cn3)c3c(c(=O)n2n1)CN(C(C)(C)CO)C3=O [Example 136, 2-[2-ethyl-6-(1-hydroxy-2-methylpropan-2-yl)-5,8-dioxo-5,6,7,8-tetrahydro-4H-pyrazolo[1,5-a]pyrrolo[3,4-d]pyrimidin-4-yl]-N-(5-fluoropyridin-2-yl)acetamide] | 56 |
| CC(C)N1Cc2c(n(CC(=O)Nc3ccc(F)cn3)c3cc(Cc4ccccn4)nn3c2=O)C1=O [Example 133] | 22 |
| CC(C)N1Cc2c(n(CC(=O)Nc3ccc(F)cn3)c3cc(C(=O)O)nn3c2=O)C1=O [Example 84, 4-{2-[(5-Fluoropyridin-2-yl)amino]-2-oxoethyl}-5,8-dioxo-6-(propan-2-yl)-5,6,7,8-tetrahydro-4H-pyrazolo[1,5-a]pyrrolo[3,4-d]pyrimidine-2-carboxylic acid] | 1400 |
| CCc1cc2n(CC(=O)Nc3ccc(F)cn3)c3c(c(=O)n2n1)CN(C1CN(S(C)(=O)=O)C1)C3=O [Example 273] | 565 |
| CC(C)N1Cc2c(n(CC(=O)Nc3ccc(F)cn3)c3cc(C(=O)NCCCO)nn3c2=O)C1=O [Example 224] | 145 |
| Cc1cc2n(CC(=O)Nc3ccc(F)cn3)c3c(c(=O)n2n1)CN(CC1CCO1)C3=O (stereo not drawn) [Example 125] | 240 |
| CC(C)N1Cc2c(n(CC(=O)Nc3ccc(F)cn3)c3cc(C4=COCC4)nn3c2=O)C1=O [Example 144, 2-[2-(4,5-dihydrofuran-3-yl)-5,8-dioxo-6-(propan-2-yl)-5,6,7,8-tetrahydro-4H-pyrazolo[1,5-a]pyrrolo[3,4-d]pyrimidin-4-yl]-N-(5-fluoropyridin-2-yl)acetamide] | 36 |
| CC(C)N1Cc2c(n(CC(=O)Nc3ccc(F)cn3)c3cc(C(=O)Nc4ccc(Cl)cn4)nn3c2=O)C1=O [Example 213] | 93 |
| CC(C)N1Cc2c(n(CC(=O)Nc3ccc(F)cn3)c3cc(CN4CCCC4=O)nn3c2=O)C1=O [Example 232, 2-{5,8-dioxo-2-[(2-oxopyrrolidin-1-yl)methyl]-6-(propan-2-yl)-5,6,7,8-tetrahydro-4H-pyrazolo[1,5-a]pyrrolo[3,4-d]pyrimidin-4-yl}-N-(5-fluoropyridin-2-yl)acetamide] | 53 |
| COC[C@H](C)N1Cc2c(n(CC(=O)Nc3ccc(F)cn3)c3cc(C#N)nn3c2=O)C1=O [Example 148] | 225 |
| CC(C)N1Cc2c(n(CC(=O)Nc3ccc(F)cn3)c3cc([C@@H]4CCOC4)nn3c2=O)C1=O (single isomer, unassigned) [Example 280, 2-{5,8-dioxo-2-[oxolan-3-yl]-6-(propan-2-yl)-5,6,7,8-tetrahydro-4H-pyrazolo[1,5-a]pyrrolo[3,4-d]pyrimidin-4-yl}-N-(5-fluoropyridin-2-yl)acetamide] | 57 |
| CCc1cc2n(CC(=O)Nc3ccc(F)cn3)c3c(c(=O)n2n1)CN(C1CN(C(C)=O)C1)C3=O [Example 269] | 1500 |
| CCc1cc2n(CC(=O)Nc3ccc(F)cn3)c3c(c(=O)n2n1)CN(C1CCN(C)CC1)C3=O [Example 87] | 1650 |
| CCc1cc2n(CC(=O)Nc3ccc(F)cn3)c3c(c(=O)n2n1)CN(C1CCS(=O)(=O)CC1)C3=O [Example 119] | 470 |
| CC(C)N1Cc2c(n(CC(=O)Nc3ccc(F)cn3)c3cc([C@H]4CCOC4)nn3c2=O)C1=O (single isomer, unassigned) [Example 281, 2-{5,8-dioxo-2-[oxolan-3-yl]-6-(propan-2-yl)-5,6,7,8-tetrahydro-4H-pyrazolo[1,5-a]pyrrolo[3,4-d]pyrimidin-4-yl}-N-(5-fluoropyridin-2-yl)acetamide] | 42 |
| CCOC(=O)c1cc2n(CC(=O)Nc3ccc(F)cn3)c3c(c(=O)n2n1)CN(CCN1CCOCC1)C3=O [Example 123] | 21 |
| CCc1cc2n(CC(=O)Nc3ccc(F)cn3)c3c(c(=O)n2n1)CN(CC(=O)N(C)C1CC1)C3=O [Example 294] | 247 |
| CC(C)N1Cc2c(n(CC(=O)Nc3ccc(F)cn3)c3cc(N)nn3c2=O)C1=O [Example 241, 2-[2-amino-5,8-dioxo-6-(propan-2-yl)-5,6,7,8-tetrahydro-4H-pyrazolo[1,5-a]pyrrolo[3,4-d]pyrimidin-4-yl]-N-(5-fluoropyridin-2-yl)acetamide hydrochloride (1:1)] | 625 |
